Data taken from patent US20240189318A1, “THERAPEUTIC REGIMENS OF AN INHIBITOR OF THE ENZYMATIC ACTIVITY OF BRG1 AND BRM” (FOGHORN THERAPEUTICS INC., priority 2021, published 2024).
Where two headings read alike, the source gives them in different places.

Legend:
[1] = molecular target: T1, BCRP (Homo sapiens, UniProt Q9UNQ0); experiment: Transporter inhibition in MDCK-II cells, BCRP; format: in vitro ADME; details: for IC50: probe prazosin 2 μM
T1 construct: expressed in transfected cells; host or cells: MDCK-II
T1 sequence (Q9UNQ0 1-655): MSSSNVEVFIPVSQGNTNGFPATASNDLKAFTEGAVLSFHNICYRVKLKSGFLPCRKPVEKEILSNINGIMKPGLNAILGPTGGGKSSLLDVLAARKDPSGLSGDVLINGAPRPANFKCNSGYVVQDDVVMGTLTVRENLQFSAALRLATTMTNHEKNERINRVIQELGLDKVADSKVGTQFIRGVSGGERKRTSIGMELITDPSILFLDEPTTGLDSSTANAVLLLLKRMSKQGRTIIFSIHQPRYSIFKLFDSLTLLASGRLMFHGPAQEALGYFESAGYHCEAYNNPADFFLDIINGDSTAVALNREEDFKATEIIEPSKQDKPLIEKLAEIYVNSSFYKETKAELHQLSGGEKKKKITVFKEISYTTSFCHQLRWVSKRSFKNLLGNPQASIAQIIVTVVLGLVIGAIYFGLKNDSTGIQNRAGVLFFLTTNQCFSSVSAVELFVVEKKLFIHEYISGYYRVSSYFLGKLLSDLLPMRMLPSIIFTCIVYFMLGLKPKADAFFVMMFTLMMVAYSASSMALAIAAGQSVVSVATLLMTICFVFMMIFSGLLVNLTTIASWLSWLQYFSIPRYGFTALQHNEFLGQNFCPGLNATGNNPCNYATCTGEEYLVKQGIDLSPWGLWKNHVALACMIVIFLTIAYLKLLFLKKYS

[2] = molecular target: T2, OATP1B3 (Homo sapiens, UniProt Q9NPD5); experiment: Transporter inhibition in MDCK-II cells, OATP1B3; format: in vitro ADME; details: probe CCK-8 2 μM
T2 construct: expressed in transfected cells; host or cells: MDCK-II

[3] = molecular target: CHD4 enzyme (Homo sapiens, UniProt Q14839); experiment: ADP-Glo ATPase assay, CHD4; format: biochemical; details: concentrations up to 200 μM (n=3)
[4] = molecular target: BRM (Homo sapiens, UniProt P51531); experiment: biochemical
[5] = Depletion in Control Bactosomes and Reductase Control; format: in vitro ADME
[6] = tested on: cultured human hepatocytes; experiment: Cytotoxicity to cultured human hepatocytes (morphology, LDH release); details: second study, 0.3 to 50 nM, 72 hours
[7] = tested on: CYP2B6 mRNA; experiment: CYP mRNA level (qRT-PCR) in cultured human hepatocytes, CYP2B6; details: tested concentrations up to 50 nM
[8] = molecular target: T1, BCRP; experiment: Bidirectional transport in MDCK-II cells expressing BCRP; format: in vitro ADME
[9] = tested on: SBC-5 cells; experiment: 10-day proliferation assay, negative control cells lacking BRG1 and BRM; details: Homo sapiens, SBC-5, 240 h, read-out: mean IC50, cell proliferation
[10] = Oral absorption in dogs, capsule; format: in vivo; details: administered in a capsule
[11] = molecular target: CYP2C8 (Homo sapiens, UniProt P10632); experiment: Depletion by recombinant CYP enzyme, CYP2C8; format: in vitro ADME; design: from tissue; host or cells: pooled human liver microsomes; details: recombinant 2C8
[12] = molecular target: CYP2C9 (Homo sapiens, UniProt P11712); experiment: CYP enzyme inhibition in pooled human liver microsomes, CYP2C9; details: for inhibition at 30 µM: human, microsomes, Enzyme activity (% inhibition), CYP2C9, probe Diclofenac
[13] = tested on: CYP3A activity; experiment: CYP enzyme activity in cultured human hepatocytes, CYP3A4; format: in vitro ADME
[14] = Bidirectional transport in MDCK control cells (passive permeability); format: in vitro ADME; details: dog; for Papp B→A at 1 μM / Papp B→A at 50 μM / Papp A→B at 1 μM / Papp A→B at 10 μM / Papp B→A at 10 μM / Papp A→B at 50 μM: MDCK; for Papp A→B at 10 μM / Papp B→A at 10 μM: 10 μM compound of formula (I)
[15] = tested on: MDCK control cells; experiment: as above; format: in vitro ADME; details: MDCK control cells
[16] = tested on: CYP3a23 mRNA; experiment: CYP mRNA expression in cultured rat hepatocytes, CYP3a23; format: in vitro ADME; details: 0.3 to 100 nM
[17] = molecular target: CYP3A4 (Homo sapiens, UniProt P08684); experiment: Depletion by recombinant CYP enzyme, CYP3A4; format: in vitro ADME; details: recombinant 3A4
[18] = tested on: 92-1 uveal melanoma cells; experiment: 92-1 uveal melanoma xenograft, Example 16; format: in vivo
[19] = molecular target: T3, P-gp (Homo sapiens, UniProt P08183); experiment: Transporter inhibition in MDCK-II cells, P-gp; format: in vitro ADME; details: for IC50: probe quinidine 0.1 μM
T3 construct: expressed in transfected cells; host or cells: MDCK-II

[20] = molecular target: CYP2D6 (Homo sapiens, UniProt P10635); experiment: Depletion by recombinant CYP enzyme, CYP2D6; format: in vitro ADME; design: from tissue; host or cells: pooled human liver microsomes; details: recombinant 2D6
[21] = FDA guidance 2020, human dose of 300 mg
[22] = human, read-out: Papp A→B, in transporter cells
[23] = human, read-out: Papp B→A, in transporter cells
[24] = BCRP assay, 50 μM compound of formula (I)
[25] = P-gp assay, 1 μM compound of formula (I)

Chain of CYP2C9 (P11712 whole entry): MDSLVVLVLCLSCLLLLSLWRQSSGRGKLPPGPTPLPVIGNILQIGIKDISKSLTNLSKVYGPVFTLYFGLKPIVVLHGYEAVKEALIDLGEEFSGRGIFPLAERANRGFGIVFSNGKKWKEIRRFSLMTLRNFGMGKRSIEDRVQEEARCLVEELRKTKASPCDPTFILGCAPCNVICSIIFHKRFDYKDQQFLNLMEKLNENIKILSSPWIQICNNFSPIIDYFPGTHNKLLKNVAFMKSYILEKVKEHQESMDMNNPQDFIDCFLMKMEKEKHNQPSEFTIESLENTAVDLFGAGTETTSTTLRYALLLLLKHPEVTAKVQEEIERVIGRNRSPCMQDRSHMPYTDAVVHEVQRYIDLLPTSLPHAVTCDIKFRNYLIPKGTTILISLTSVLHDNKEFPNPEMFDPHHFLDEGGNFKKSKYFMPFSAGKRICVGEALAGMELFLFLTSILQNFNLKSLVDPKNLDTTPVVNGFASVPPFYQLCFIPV
T3 sequence (P08183 whole entry): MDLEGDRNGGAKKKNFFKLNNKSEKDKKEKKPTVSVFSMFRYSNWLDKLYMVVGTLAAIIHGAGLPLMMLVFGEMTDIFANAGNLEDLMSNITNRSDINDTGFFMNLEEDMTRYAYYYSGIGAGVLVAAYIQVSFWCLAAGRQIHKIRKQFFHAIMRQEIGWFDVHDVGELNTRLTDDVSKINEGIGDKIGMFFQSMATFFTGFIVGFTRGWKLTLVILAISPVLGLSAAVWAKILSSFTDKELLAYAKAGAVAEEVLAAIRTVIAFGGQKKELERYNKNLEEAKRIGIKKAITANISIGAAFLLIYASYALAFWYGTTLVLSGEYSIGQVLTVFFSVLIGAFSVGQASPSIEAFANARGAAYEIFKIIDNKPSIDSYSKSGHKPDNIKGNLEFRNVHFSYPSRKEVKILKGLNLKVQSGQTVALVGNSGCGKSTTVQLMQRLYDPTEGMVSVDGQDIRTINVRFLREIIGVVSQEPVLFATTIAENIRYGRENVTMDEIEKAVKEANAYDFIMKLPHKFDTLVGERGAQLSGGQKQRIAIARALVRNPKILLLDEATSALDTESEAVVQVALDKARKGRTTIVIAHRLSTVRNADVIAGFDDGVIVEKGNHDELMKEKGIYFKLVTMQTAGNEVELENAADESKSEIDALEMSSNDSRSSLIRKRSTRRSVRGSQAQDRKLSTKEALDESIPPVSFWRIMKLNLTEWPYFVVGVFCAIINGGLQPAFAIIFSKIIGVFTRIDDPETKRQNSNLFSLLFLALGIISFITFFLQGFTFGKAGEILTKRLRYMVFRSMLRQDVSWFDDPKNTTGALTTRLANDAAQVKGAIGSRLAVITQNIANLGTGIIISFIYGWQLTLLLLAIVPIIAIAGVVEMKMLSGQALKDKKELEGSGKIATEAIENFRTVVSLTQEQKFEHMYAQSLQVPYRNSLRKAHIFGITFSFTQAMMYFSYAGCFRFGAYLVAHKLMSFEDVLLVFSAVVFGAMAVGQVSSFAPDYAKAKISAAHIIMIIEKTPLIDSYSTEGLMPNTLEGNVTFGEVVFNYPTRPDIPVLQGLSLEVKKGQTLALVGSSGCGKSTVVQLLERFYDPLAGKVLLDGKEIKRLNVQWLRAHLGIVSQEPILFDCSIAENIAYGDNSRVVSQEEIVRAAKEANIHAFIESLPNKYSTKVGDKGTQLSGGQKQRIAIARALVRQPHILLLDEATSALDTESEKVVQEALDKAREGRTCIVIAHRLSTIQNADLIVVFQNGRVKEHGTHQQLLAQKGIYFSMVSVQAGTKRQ
Chain of CYP3A4 (P08684 whole entry): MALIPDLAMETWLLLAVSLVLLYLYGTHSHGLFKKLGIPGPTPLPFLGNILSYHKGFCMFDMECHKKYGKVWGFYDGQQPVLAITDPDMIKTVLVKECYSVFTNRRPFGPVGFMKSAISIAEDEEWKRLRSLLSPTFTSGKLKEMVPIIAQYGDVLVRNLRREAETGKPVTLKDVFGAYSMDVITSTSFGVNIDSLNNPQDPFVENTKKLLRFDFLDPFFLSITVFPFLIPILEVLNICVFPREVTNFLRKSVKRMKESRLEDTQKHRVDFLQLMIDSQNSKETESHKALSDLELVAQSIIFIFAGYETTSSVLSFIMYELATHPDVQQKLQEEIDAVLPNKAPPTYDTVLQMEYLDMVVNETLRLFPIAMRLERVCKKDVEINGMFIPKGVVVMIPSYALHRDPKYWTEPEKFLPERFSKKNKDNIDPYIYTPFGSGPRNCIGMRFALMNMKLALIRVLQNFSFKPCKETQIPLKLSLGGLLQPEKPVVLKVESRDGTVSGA
T2 sequence (Q9NPD5 whole entry): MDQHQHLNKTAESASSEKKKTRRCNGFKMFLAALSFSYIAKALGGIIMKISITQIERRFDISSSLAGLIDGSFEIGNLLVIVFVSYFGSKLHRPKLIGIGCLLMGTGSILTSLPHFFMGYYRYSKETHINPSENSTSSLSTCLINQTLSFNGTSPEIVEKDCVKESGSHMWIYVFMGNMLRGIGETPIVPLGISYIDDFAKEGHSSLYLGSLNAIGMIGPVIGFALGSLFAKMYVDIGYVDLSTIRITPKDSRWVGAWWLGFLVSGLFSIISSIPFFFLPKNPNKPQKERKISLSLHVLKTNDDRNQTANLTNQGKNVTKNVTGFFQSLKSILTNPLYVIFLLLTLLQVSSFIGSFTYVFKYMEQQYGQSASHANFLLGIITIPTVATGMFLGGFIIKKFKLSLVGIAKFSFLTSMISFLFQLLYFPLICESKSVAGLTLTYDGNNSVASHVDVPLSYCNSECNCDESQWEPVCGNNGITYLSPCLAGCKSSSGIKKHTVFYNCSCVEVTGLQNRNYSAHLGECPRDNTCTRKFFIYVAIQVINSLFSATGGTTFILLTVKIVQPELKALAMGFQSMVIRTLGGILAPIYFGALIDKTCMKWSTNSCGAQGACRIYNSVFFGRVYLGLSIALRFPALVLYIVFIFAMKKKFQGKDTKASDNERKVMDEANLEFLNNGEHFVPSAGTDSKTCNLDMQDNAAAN
Chain of CYP2C8 (P10632 whole entry): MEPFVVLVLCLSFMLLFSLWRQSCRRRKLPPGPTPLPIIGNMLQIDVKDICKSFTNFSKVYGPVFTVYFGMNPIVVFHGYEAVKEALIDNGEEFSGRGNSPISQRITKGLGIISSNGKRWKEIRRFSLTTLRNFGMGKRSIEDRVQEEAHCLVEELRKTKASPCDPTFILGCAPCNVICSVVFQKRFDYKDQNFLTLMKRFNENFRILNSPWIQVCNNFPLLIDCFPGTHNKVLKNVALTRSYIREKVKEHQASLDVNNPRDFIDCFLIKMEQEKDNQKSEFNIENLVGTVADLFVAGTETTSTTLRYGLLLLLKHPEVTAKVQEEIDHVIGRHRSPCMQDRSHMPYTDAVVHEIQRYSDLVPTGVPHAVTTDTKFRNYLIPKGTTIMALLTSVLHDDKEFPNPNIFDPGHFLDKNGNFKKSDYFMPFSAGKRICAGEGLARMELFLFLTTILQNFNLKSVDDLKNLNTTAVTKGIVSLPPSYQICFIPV
Chain of CYP2D6 (P10635 whole entry): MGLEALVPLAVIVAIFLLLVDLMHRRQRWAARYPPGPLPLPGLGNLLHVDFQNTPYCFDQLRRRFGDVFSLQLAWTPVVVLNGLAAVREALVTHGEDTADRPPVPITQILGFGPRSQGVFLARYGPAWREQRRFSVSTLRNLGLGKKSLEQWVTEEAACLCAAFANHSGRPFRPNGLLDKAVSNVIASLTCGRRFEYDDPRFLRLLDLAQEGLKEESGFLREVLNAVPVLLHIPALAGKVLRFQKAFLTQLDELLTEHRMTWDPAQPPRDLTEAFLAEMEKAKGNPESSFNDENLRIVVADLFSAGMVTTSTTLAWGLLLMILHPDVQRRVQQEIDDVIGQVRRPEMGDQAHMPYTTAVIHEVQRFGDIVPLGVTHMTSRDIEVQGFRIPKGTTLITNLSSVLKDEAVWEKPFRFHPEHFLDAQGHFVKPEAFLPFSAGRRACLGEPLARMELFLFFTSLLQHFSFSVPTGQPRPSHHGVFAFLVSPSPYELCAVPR

COC[C@H](NC(=O)c1ccn(S(C)(=O)=O)c1)C(=O)Nc1nc(-c2cccc(N3C[C@@H](C)O[C@@H](C)C3)n2)cs1 [compound of formula (I), N-((S)-1-((4-(6-(cis-2,6-dimethylmorpholino)pyridin-2-yl)thiazol-2-yl)amino)-3-methoxy-1-oxopropan-2-yl)-1-(methylsulfonyl)-1H-pyrrole-3-carboxamide]
IC50 ([1]; BCRP in MDCK-II cells, read-out: Estimated IC50 using nominal concentrations): 10.1 µM | IC50 ([1]; BCRP, corrected, read-out: IC50 corrected for non-specific binding): 2.38 µM | R-value for BCRP inhibition in the gut [1, 21]: > 10 | IC50 ([2]; OATP1B3, corrected, read-out: IC50 corrected for non-specific binding): 2.68 µM | IC50 ([2]; OATP1B3 in MDCK-II cells, read-out: Estimated IC50 using nominal concentrations): 11.4 µM | inhibition of the ATPase activity of the CHD4 enzyme [3]: did not inhibit | IC50 [4]: 0.0045 µM | % Remaining of Compound of Formula (I) ([5]; Control Bactosomes, 0.1 μM): 90.2% | % Remaining of Compound of Formula (I) ([5]; Control Bactosomes, 1 μM): 98.3% | % Remaining of Compound of Formula (I) ([5]; Reductase Control, 0.1 μM): 78.3% | % Remaining of Compound of Formula (I) ([5]; Reductase Control, 1 μM): 109% | cytotoxicity to cultured human hepatocytes [6]: no evidence of cytotoxicity | effect on mRNA expression of CYP2B6 [7]: minimal effect | BCRP substrate status ([8]; MDCK-II cells expressing BCRP): substrate | Papp A→B at 1 μM [8, 22]: 6.15 ×10⁻⁶ cm/s | Papp A→B at 10 μM [8, 22]: 16.5 ×10⁻⁶ cm/s | Papp A→B at 50 μM [8, 22]: 22.4 ×10⁻⁶ cm/s | Papp B→A at 1 μM [8, 23]: 24.3 ×10⁻⁶ cm/s | Papp B→A at 10 μM [8, 23]: 25.2 ×10⁻⁶ cm/s | Papp B→A at 50 μM [8, 23]: 18.5 ×10⁻⁶ cm/s | IC50 [9]: > 25 µM | oral absorption [10]: good oral absorption | % Remaining of Compound of Formula (I) ([11]; 0.1 μM): 81.0% | % Remaining of Compound of Formula (I) ([11]; 1 μM): 95.4% | IC50 [12]: > 30 µM | direct inhibitory activity (% inhibition) toward CYP2C9 ([12]; PHLM, concentrations up to 30 μM): < 50% | inhibition at 30 µM ([12]; 30 Minutes Pre-incubation with NADPH, PHLM): 43.5% | inhibition at 30 µM ([12]; 30 Minutes Pre-incubation without NADPH, PHLM): 29.5% | inhibition at 30 µM ([12]; No Pre-incubation, PHLM): 47.1% | effect on CYP3A activity ([13]; 0.3 to 50 nM): minimal | decrease in CYP3A activity ([13]; concentrations 1 to 50 nM): ≤ 32% | Papp B→A at 1 μM [14]: 18.2 ×10⁻⁶ cm/s | Papp B→A at 50 μM [14]: 18.5 ×10⁻⁶ cm/s | Papp A→B at 1 μM ([14]; BCRP assay, 1 μM compound of formula (I)): 26 ×10⁻⁶ cm/s | Papp A→B at 10 μM ([14]; BCRP assay): 25.4 ×10⁻⁶ cm/s | Papp B→A at 10 μM ([14]; BCRP assay): 20.9 ×10⁻⁶ cm/s | Papp A→B at 50 μM [14, 24]: 21.3 ×10⁻⁶ cm/s | Papp B→A at 50 μM [14, 24]: 19.2 ×10⁻⁶ cm/s | Papp A→B at 1 μM [14, 25]: 28.8 ×10⁻⁶ cm/s | Papp B→A at 1 μM [14, 25]: 21 ×10⁻⁶ cm/s | Papp A→B at 10 μM ([14]; P-gp assay): 31 ×10⁻⁶ cm/s | Papp B→A at 10 μM ([14]; P-gp assay): 23.6 ×10⁻⁶ cm/s | Papp A→B at 50 μM ([14]; P-gp assay, 50 μM compound of formula (I)): 25.5 ×10⁻⁶ cm/s | Papp ([14]; MDCK control cells, read-out: apparent permeability coefficient (Papp) (B→A) or Papp (A→B)): ≥ 15 ×10⁻⁶ cm/s | passive permeability [15]: high passive permeability | concentrations at which CYP3a23 mRNA expression was decreased ≥50% [16]: ≥ 10 nM | % Remaining of Compound of Formula (I) ([17]; 0.1 μM): 0.0% | % Remaining of Compound of Formula (I) ([17]; 1 μM): 1.2% | tumor response at the highest dose ([18]; […], once daily oral gavage): tumor regression | tolerability based on % body weight change ([18]; all treatments): well tolerated | tumor growth inhibition ([18]; nude mice, 92-1 xenograft, once daily oral gavage, 3 weeks, increasing doses): tumor growth inhibition in a dose-dependent manner | R-value for P-gp inhibition in the gut [19, 21]: > 10 | IC50 ([19]; P-gp in MDCK-II cells, read-out: Estimated IC50 using nominal concentrations): 18.5 µM | IC50 ([19]; P-gp, corrected, read-out: IC50 corrected for non-specific binding): 4.36 µM | % Remaining of Compound of Formula (I) ([20]; 0.1 μM): 85.0% | % Remaining of Compound of Formula (I) ([20]; 1 μM): 93.5%
